Results reported in patent US20210122730A1, “GLUCOCORTICOID RECEPTOR MODULATORS” (ORIC Pharmaceuticals, Inc., priority 2017, published 2021).

These compounds were tested against T1, GR (Homo sapiens, UniProt P04150) (assay: In Vitro GR Luciferase Reporter Assay (antagonist mode, CHO-K1-GR-MMTV-Luc reporter cells)). Conditions: antagonist assay with 10 nM Dexamethasone, 18-24 hours.
T1 construct: expressed in transfected cells; host or cells: CHO-K1
T1 sequence (P04150 1-777): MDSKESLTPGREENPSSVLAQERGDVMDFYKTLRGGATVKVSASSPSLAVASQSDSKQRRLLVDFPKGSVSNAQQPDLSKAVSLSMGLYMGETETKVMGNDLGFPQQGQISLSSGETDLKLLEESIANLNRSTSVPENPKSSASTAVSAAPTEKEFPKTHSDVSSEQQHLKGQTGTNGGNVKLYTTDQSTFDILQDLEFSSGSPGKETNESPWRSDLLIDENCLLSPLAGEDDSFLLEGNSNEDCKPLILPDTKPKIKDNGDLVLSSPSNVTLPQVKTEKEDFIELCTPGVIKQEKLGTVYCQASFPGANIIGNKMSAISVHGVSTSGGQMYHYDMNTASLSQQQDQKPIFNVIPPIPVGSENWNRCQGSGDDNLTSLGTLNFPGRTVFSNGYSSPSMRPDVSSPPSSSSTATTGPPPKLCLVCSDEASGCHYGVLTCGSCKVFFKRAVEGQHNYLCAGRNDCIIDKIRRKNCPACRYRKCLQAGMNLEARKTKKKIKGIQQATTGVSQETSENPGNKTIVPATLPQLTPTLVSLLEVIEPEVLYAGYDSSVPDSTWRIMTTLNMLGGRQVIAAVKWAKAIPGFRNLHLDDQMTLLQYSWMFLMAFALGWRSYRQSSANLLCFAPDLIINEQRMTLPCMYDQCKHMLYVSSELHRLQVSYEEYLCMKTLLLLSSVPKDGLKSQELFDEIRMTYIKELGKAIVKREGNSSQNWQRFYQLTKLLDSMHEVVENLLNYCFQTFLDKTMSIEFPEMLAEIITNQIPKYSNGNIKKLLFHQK
Assay type: cell-based
Text: Example A: In Vitro GR Luciferase Reporter Assay
Cell Line: CHO-K1-GR-MMTV-Luc reporter cells
Culture Media: DMEM (with phenol red)+10% FBS
Assay Media: DMEM (without phenol red)+10% CSS
Culture CHO-K1I-GR-MMTV-Luc reporter cells in 15 cm plates in Culture Media at conditions less than 90% confluence.
Prepare 200×DMSO 1:5 serial dilutions of control and test compounds in 96-well non-sterile V bottom plate in DMSO, 8serial dilutions for each compound.
Prepare 5× Assay Media diluted compound serial dilutions in 96-well non-sterile V bottom plate: Add 97.5 uL/well of Assay Media into 96-well then add 2.5 ul of 200× concentration of compounds and mix well.
Seed cells for Antagonist Assay: […] CHO-K1-GR-MMTV-Luc reporter cells were seeded in a Corning 3707 flat clear bottom 384-well white TC plate in 20 ul of Assay Media containing 12.5 nM Dexamethasone (final concentration=10 nM).
Add compounds: 5 ul of assay media diluted compounds were added to appropriate wells and followed a quick spin (1000 rpm, 10 sec) to bring media and cells to the bottom of plate. The plates were covered with SealMate film to avoid evaporation and placed in 37° C. incubator for approximately 18-24 hours.
Read plates: Equilibrate appropriate amount of Promega OneGlo luciferase reagent to room temperature. Remove the plates from incubator and add 25 uL of OneGlo reagent/well by multiple channel pipette and read the plates with Tecan F500 luminometer within 3 minutes.
The ability of the compounds disclosed herein to inhibit GR activity was quantified and the respective IC50 value was determined. Table 1and Table 2provide the cellular IC50 values of compounds disclosed herein.
O=C(c1ccccn1)[C@]12Cc3cnn(-c4ccc(F)cc4)c3C=C1CC[C@@H](S(=O)(=O)c1ccc(F)c(F)c1)C2 [Example 16, ((4aS,6R)-6-((3,4-difluorophenyl)sulfonyl)-1-(4-fluorophenyl)-1,4,5,6,7,8-hexahydro-4aH-benzo[f]indazol-4a-yl)(pyridin-2-yl)methanone] showed an IC50 of no more than 0.1 µM.
Work on O=C(c1cc(C(F)(F)F)ccn1)[C@]12Cc3cnn(-c4ccc(F)cc4)c3C=C1CC[C@@H](S(=O)(=O)c1cccc(C(F)(F)F)c1)C2 [Example 17, ((4aS,6R)-1-(4-fluorophenyl)-6-((3-(trifluoromethyl)phenyl)sulfonyl)-1,4,5,6,7,8-hexahydro-4aH-benzo[f]indazol-4a-yl)(4-(trifluoromethyl)pyridin-2-yl)methanone] yielded an IC50 of no more than 0.1 µM.
O=C(c1ccccn1)[C@]12Cc3cnn(-c4ccc(F)cc4)c3C=C1CC[C@@H](S(=O)(=O)c1cccc(C(F)(F)F)c1)C2 [Example 18, ((4aS,6R)-1-(4-fluorophenyl)-6-((3-(trifluoromethyl)phenyl)sulfonyl)-1,4,5,6,7,8-hexahydro-4aH-benzo[f]indazol-4a-yl)(pyridin-2-yl)methanone] showed an IC50 of no more than 0.1 µM.
Work on COc1ccc(S(=O)(=O)[C@H]2CCC3=Cc4c(cnn4-c4ccc(F)cc4)C[C@]3(C(=O)c3ccccn3)C2)cc1 [Example 19, ((4aS,6S)-1-(4-fluorophenyl)-6-((4-methoxyphenyl)sulfonyl)-1,4,5,6,7,8-hexahydro-4aH-benzo[f]indazol-4a-yl)(pyridin-2-yl)methanone] yielded an IC50 of no more than 0.1 µM.
With O=C(c1ccccn1)[C@]12Cc3cnn(-c4ccc(F)cc4)c3C=C1CC[C@H](S(=O)(=O)c1ccccc1)C2 [Example 20, ((4aS,6S)-1-(4-fluorophenyl)-6-(phenylsulfonyl)-1,4,5,6,7,8-hexahydro-4aH-benzo[f]indazol-4a-yl)(pyridin-2-yl)methanone] the IC50 was no more than 0.1 µM.
In the case of O=C(c1ccccn1)[C@]12Cc3cnn(-c4ccc(F)cc4)c3C=C1CC[C@H](S(=O)(=O)Cc1ccccc1)C2 [Example 21, ((4aS,6S)-6-(benzylsulfonyl)-1-(4-fluorophenyl)-1,4,5,6,7,8-hexahydro-4aH-benzo[f]indazol-4a-yl)(pyridin-2-yl)methanone], the IC50 is reported as no more than 0.1 µM.
With O=C(c1ccccn1)[C@]12Cc3cnn(-c4ccc(F)cc4)c3C=C1CC[C@H](S(=O)(=O)c1ccc(F)c(F)c1)C2 [Example 22, ((4aS,6S)-6-((3,4-difluorophenyl)sulfonyl)-1-(4-fluorophenyl)-1,4,5,6,7,8-hexahydro-4aH-benzo[f]indazol-4a-yl)(pyridin-2-yl)methanone] the IC50 was no more than 0.1 µM.
Compound Cc1ccnc(C(=O)[C@]23Cc4cnn(-c5ccc(F)cc5)c4C=C2CC[C@H](S(=O)(=O)c2cnn(C)c2)C3)c1 [Example 23, ((4aS,6S)-1-(4-fluorophenyl)-6-((1-methyl-1H-pyrazol-4-yl)sulfonyl)-1,4,5,6,7,8-hexahydro-4aH-benzo[f]indazol-4a-yl)(4-methylpyridin-2-yl)methanone] has an IC50 of no more than 0.1 µM.
For O=C(c1ccccn1)[C@]12Cc3cnn(-c4ccc(F)cc4)c3C=C1CC[C@@H](S(=O)(=O)c1ccccc1)C2 [Example 24, ((4aS,6R)-1-(4-fluorophenyl)-6-(phenylsulfonyl)-1,4,5,6,7,8-hexahydro-4aH-benzo[f]indazol-4a-yl)(pyridin-2-yl)methanone], the IC50 was no more than 0.1 µM.
O=C(c1ccccn1)[C@]12Cc3cnn(-c4ccc(F)cc4)c3C=C1CC[C@H](S(=O)(=O)c1ccc(F)cc1)C2 [Example 25, ((4aS,6S)-1-(4-fluorophenyl)-6-((4-fluorophenyl)sulfonyl)-1,4,5,6,7,8-hexahydro-4aH-benzo[f]indazol-4a-yl)(pyridin-2-yl)methanone] was tested, and the IC50 was no more than 0.1 µM.
In the case of O=C(c1ccccn1)[C@]12Cc3cnn(-c4ccc(F)cc4)c3C=C1CC[C@H](S(=O)(=O)c1ccccn1)C2 [Example 26, ((4aS,6S)-1-(4-fluorophenyl)-6-(pyridin-2-ylsulfonyl)-1,4,5,6,7,8-hexahydro-4aH-benzo[f]indazol-4a-yl)(pyridin-2-yl)methanone], the IC50 is reported as no more than 0.1 µM.
For O=C(c1cc(C(F)(F)F)ccn1)[C@]12Cc3cnn(-c4ccc(F)cc4)c3C=C1CC[C@@H](S(=O)(=O)c1cnns1)C2 [Example 27, ((4aS,6R)-6-((1,2,3-thiadiazol-5-yl)sulfonyl)-1-(4-fluorophenyl)-1,4,5,6,7,8-hexahydro-4aH-benzo[f]indazol-4a-yl)(4-(trifluoromethyl)pyridin-2-yl)methanone], the IC50 was 0.1 to 1 µM.
Work on O=C(c1ccccn1)[C@]12Cc3cnn(-c4ccc(F)cc4)c3C=C1CC[C@H](S(=O)(=O)c1cccc(C(F)(F)F)c1)C2 [Example 28, ((4aS,6S)-1-(4-fluorophenyl)-6-((3-(trifluoromethyl)phenyl)sulfonyl)-1,4,5,6,7,8-hexahydro-4aH-benzo[f]indazol-4a-yl)(pyridin-2-yl)methanone] yielded an IC50 of no more than 0.1 µM.
Compound O=C(c1ccccn1)[C@]12Cc3cnn(-c4ccc(F)cc4)c3C=C1CC[C@@H](S(=O)(=O)c1ccc(F)cc1)C2 [Example 29, ((4aS,6R)-1-(4-fluorophenyl)-6-((4-fluorophenyl)sulfonyl)-1,4,5,6,7,8-hexahydro-4aH-benzo[f]indazol-4a-yl)(pyridin-2-yl)methanone] has an IC50 of 0.1 to 1 µM.
With Cc1ccnc(C(=O)[C@]23Cc4cnn(-c5ccc(F)cc5)c4C=C2CC[C@H](S(=O)(=O)c2ccc(F)c(F)c2)C3)c1 [Example 30, ((4aS,6S)-6-((3,4-difluorophenyl)sulfonyl)-1-(4-fluorophenyl)-1,4,5,6,7,8-hexahydro-4aH-benzo[f]indazol-4a-yl)(4-methylpyridin-2-yl)methanone] the IC50 was no more than 0.1 µM.
Cc1ccc(C(=O)[C@]23Cc4cnn(-c5ccc(F)cc5)c4C=C2CC[C@H](S(=O)(=O)c2cccc(C(F)(F)F)c2)C3)nc1 [Example 31, ((4aS,6S)-1-(4-fluorophenyl)-6-((3-(trifluoromethyl)phenyl)sulfonyl)-1,4,5,6,7,8-hexahydro-4aH-benzo[f]indazol-4a-yl)(5-methylpyridin-2-yl)methanone] showed an IC50 of no more than 0.1 µM.
O=C(c1ccccn1)[C@]12Cc3cnn(-c4ccc(F)cc4)c3C=C1CC[C@H](S(=O)(=O)c1ccc(C(F)(F)F)cn1)C2 [Example 32, ((4aS,6S)-1-(4-fluorophenyl)-6-((5-(trifluoromethyl)pyridin-2-yl)sulfonyl)-1,4,5,6,7,8-hexahydro-4aH-benzo[f]indazol-4a-yl)(pyridin-2-yl)methanone] showed an IC50 of no more than 0.1 µM.
Work on Cn1ncc(S(=O)(=O)[C@H]2CCC3=Cc4c(cnn4-c4ccc(F)cc4)C[C@]3(C(=O)c3cc(C(F)(F)F)ccn3)C2)n1 [Example 33, ((4aS,6S)-1-(4-fluorophenyl)-6-((2-methyl-2H-1,2,3-triazol-4-yl)sulfonyl)-1,4,5,6,7,8-hexahydro-4aH-benzo[f]indazol-4a-yl)(4-(trifluoromethyl)pyridin-2-yl)methanone] yielded an IC50 of no more than 0.1 µM.
For Cc1ccnc(C(=O)[C@]23Cc4cnn(-c5ccc(F)cc5)c4C=C2CC[C@H](S(=O)(=O)c2ccccn2)C3)c1 [Example 34, ((4aS,6S)-1-(4-fluorophenyl)-6-(pyridin-2-ylsulfonyl)-1,4,5,6,7,8-hexahydro-4aH-benzo[f]indazol-4a-yl)(4-methylpyridin-2-yl)methanone], the IC50 was no more than 0.1 µM.
For O=C(c1ccccn1)[C@]12Cc3cnn(-c4ccc(F)cc4)c3C=C1CC[C@H](S(=O)(=O)C1CCCCC1)C2 [Example 35, ((4aS,6S)-6-(cyclohexylsulfonyl)-1-(4-fluorophenyl)-1,4,5,6,7,8-hexahydro-4aH-benzo[f]indazol-4a-yl)(pyridin-2-yl)methanone], the IC50 was no more than 0.1 µM.
In the case of Cc1ccnc(C(=O)[C@]23Cc4cnn(-c5ccc(F)cc5)c4C=C2CC[C@H](S(=O)(=O)c2ccccc2)C3)c1 [Example 36, ((4aS,6S)-1-(4-fluorophenyl)-6-(phenylsulfonyl)-1,4,5,6,7,8-hexahydro-4aH-benzo[f]indazol-4a-yl)(4-methylpyridin-2-yl)methanone], the IC50 is reported as no more than 0.1 µM.
